Data published in patent US20230146455A1, “TREATMENT OF INFLAMMATORY DISEASES WITH PEPTIDES AND PHARMACEUTICAL COMPOSITIONS” (Yuyu Pharma, Inc., priority 2020, published 2023).
Several values for one entry are separate records, joined by “and”; a condition that tells them apart may be missing. Identical values can stand only once. Where a SMILES comes first, the peptide text is derived from it. [ ]: non-standard residue; d: D form. Hyp = O=C(O)[C@@H]1C[C@@H](O)CN1

Tested on: IL-4
Test: Example 9 Luminex, LPS hPBMCs: IL-4
Assay type: cell-based, human
Description: Treatment Human PBMCs were pretreated with YY-101, YDE-011 and YDE-043 or reference compound; Xiidra® at various concentration (ranging from 1 nM to 100 uM) for 2 h before stimulation. An equal volume of 0.5% DMSO was used as a vehicle control. Then, the cells were treated with LPS at 5 ug/ml. The supernatants from treated cells were harvested at 24 h and placed in a 96 well for Luminex cytokine & chemokine profiling using a Luminex 200 multiplex assay (Luminex; R&D system, USA).
The main study arm with triplicate wells per group in a 24-well plate: • 1. Blank • 2. PBMC: 0.5% DMSO • 3. PBMC+LPS (5 ug/ml) • 4. PBMC+YY-101 100 uM • 5. PBMC+YY-101 10 uM • 6. PBMC+YY-101 1 uM • 7. PBMC+YY-101 0.1 uM • 8. PBMC+YY-101 0.01 uM • 9. PBMC+LPS (5 ug/ml)+Xiidra®100 uM • 10. PBMC+LPS (5 ug/ml)+Xiidra® 10 uM • 11. PBMC+LPS (5 ug/ml)+Xiidra® 1 uM • 12. PBMC+LPS (5 ug/ml)+Xiidra®0.1 uM • 13. PBMC+LPS (5 ug/ml)+Xiidra®0.01 uM • 14. PBMC+LPS (5 ug/ml)+Xiidra®0.001 uM • 15. PBMC+LPS (5 ug/ml)+YY-101 100 uM • 16. PBMC+LPS (5 ug/ml)+YY-101 10 uM • 17. PBMC+LPS (5 ug/ml)+YY-101 1 uM • 18. PBMC+LPS (5 ug/ml)+YY-101 0.1 uM • 19. PBMC+LPS (5 ug/ml)+YY-101 0.01 uM • 20. PBMC+LPS (5 ug/ml)+YY-101 0.001 uM • 21. PBMC+LPS (5 ug/ml)+YDE-011 100 uM • 22. PBMC+LPS (5 ug/ml)+YDE-011 10 uM • 23. PBMC+LPS (5 ug/ml)+YDE-011 1 uM • 24. PBMC+LPS (5 ug/ml)+YDE-011 0.1 uM • 25. PBMC+LPS (5 ug/ml)+YDE-011 0.01 uM • 26. PBMC+LPS (5 ug/ml)+YDE-011 0.001 uM • 27. PBMC+LPS (5 ug/ml)+YDE-043 100 uM • 28. PBMC+LPS (5 ug/ml)+YDE-043 10 uM • 29. PBMC+LPS (5 ug/ml)+YDE-043 1 uM • 30. PBMC+LPS (5 ug/ml)+YDE-043 0.1 uM • 31. PBMC+LPS (5 ug/ml)+YDE-043 0.01 uM • 32. PBMC+LPS (5 ug/ml)+YDE-043 0.001 uM
Multiplex assay was used to measure 30 cytokines and chemokines. The 1:2, 1:10 and 1:200 diluted cell supernatant and serial dilution of the standard were dispensed into a 96 well plate at 50 ul/well. Then, the pre-mixed cocktail of antibody-coated magnetic beads was dispensed at 50 ul/well and incubated at room temperature for 2 h in a horizontal orbital microplate shaker at 800±500 rpm. The beads were washed using a magnetic device to prevent loss. The biotin-antibody was dispensed in 50 ul of each well and incubated at room temperature for 1 h in a shaker at 800±500 rpm. After washing, streptavidin-PE was added at 50 ul/well and incubated at room temperature for 30 min in a shaker under the same conditions. Finally, after washing, wash buffer (100 ul/well) was added to the plate and incubated in a shaker for 2 min. The Luminex™ 200 setting were set according to the manufacturer's protocol. The data was calculated with a standard five-parameter logistic nonlinear regression analysis of the data (xPonent software 4.2, USA). The levels of cytokine/chemokine are normalized to the live cell counts (1×10^5 cells/mL) and presented as concentrations per mL (pg/mL or ng/mL).

[1] = PBMC + LPS(5 ug/ml) + test article 0.001 uM, Mean
[2] = PBMC + LPS(5 ug/ml) + test article 0.001 uM, single replicates
[3] = PBMC + LPS(5 ug/ml) + test article 0.01 uM, Mean
[4] = PBMC + LPS(5 ug/ml) + test article 0.01 uM, single replicates
[5] = PBMC + LPS(5 ug/ml) + test article 0.1 uM, Mean
[6] = PBMC + LPS(5 ug/ml) + test article 0.1 uM, single replicates
[7] = PBMC + LPS(5 ug/ml) + test article 1 uM, Mean
[8] = PBMC + LPS(5 ug/ml) + test article 1 uM, single replicates
[9] = PBMC + LPS(5 ug/ml) + test article 10 uM, Mean
[10] = PBMC + LPS(5 ug/ml) + test article 10 uM, single replicates
[11] = PBMC + LPS(5 ug/ml) + test article 100 uM, Mean
[12] = PBMC + LPS(5 ug/ml) + test article 100 uM, single replicates
[13] = PBMC + test article 0.01 uM, no LPS, Mean
[14] = PBMC + test article 0.01 uM, no LPS, single replicates
[15] = PBMC + test article 0.1 uM, no LPS, Mean
[16] = PBMC + test article 0.1 uM, no LPS, single replicates
[17] = PBMC + test article 1 uM, no LPS, Mean
[18] = PBMC + test article 1 uM, no LPS, single replicates
[19] = PBMC + test article 10 uM, no LPS, Mean
[20] = PBMC + test article 10 uM, no LPS, single replicates
[21] = PBMC + test article 100 uM, no LPS, Mean
[22] = PBMC + test article 100 uM, no LPS, single replicates

CC(C)C[C@H](NC(=O)CNC(=O)[C@H](CC(=O)O)NC(=O)[C@H](CCC(N)=O)NC(=O)CNC(=O)[C@@H]1C[C@@H](O)CN1)C(=O)N[C@@H](C)C(=O)NCC(=O)N1CCC[C@H]1C(=O)N[C@@H](CCCCN)C(=O)O [YY-101] (H-[Hyp]GQDGLAGPK-OH; N-terminus and C-terminus assumed)
Concentration, Bead name: IL-4 [1]: 26.0 pg/mL
MFI, Bead name: IL-4 [1]: 1.0
conc/live cell, Bead name: IL-4 [1]: 4.0 pg/10^5
Concentration, Bead name: IL-4 [2]: 18.4 pg/mL and 33.2 pg/mL and 26.4 pg/mL
MFI, Bead name: IL-4 [2]: 0.0 and 2.0 and 1.0
conc/live cell, Bead name: IL-4 [2]: 3.2 pg/10^5 and 4.7 pg/10^5 and 4.0 pg/10^5
Concentration, Bead name: IL-4 [3]: 33.2 pg/mL
MFI, Bead name: IL-4 [3]: 2.0
conc/live cell, Bead name: IL-4 [3]: 5.4 pg/10^5
Concentration, Bead name: IL-4 [4]: 33.2 pg/mL
MFI, Bead name: IL-4 [4]: 2.0
conc/live cell, Bead name: IL-4 [4]: 5.2 pg/10^5 and 5.5 pg/10^5 and 5.4 pg/10^5
Concentration, Bead name: IL-4 [5]: 39.2 pg/mL
MFI, Bead name: IL-4 [5]: 3.0
conc/live cell, Bead name: IL-4 [5]: 6.8 pg/10^5
Concentration, Bead name: IL-4 [6]: 39.4 pg/mL and 45.1 pg/mL and 33.2 pg/mL
MFI, Bead name: IL-4 [6]: 3.0 and 4.0 and 2.0
conc/live cell, Bead name: IL-4 [6]: 6.4 pg/10^5 and 8.7 pg/10^5 and 5.4 pg/10^5
Concentration, Bead name: IL-4 [7]: 33.2 pg/mL
MFI, Bead name: IL-4 [7]: 2.0
conc/live cell, Bead name: IL-4 [7]: 5.1 pg/10^5
Concentration, Bead name: IL-4 [8]: 33.2 pg/mL
MFI, Bead name: IL-4 [8]: 2.0
conc/live cell, Bead name: IL-4 [8]: 5.3 pg/10^5 and 4.7 pg/10^5 and 5.4 pg/10^5
Concentration, Bead name: IL-4 [9]: 23.7 pg/mL
MFI, Bead name: IL-4 [9]: 0.7
conc/live cell, Bead name: IL-4 [9]: 3.6 pg/10^5
Concentration, Bead name: IL-4 [10]: 26.4 pg/ml (2×) and 18.4 pg/ml
MFI, Bead name: IL-4 [10]: 1.0 (2×) and 0.0
conc/live cell, Bead name: IL-4 [10]: 4.4 pg/10^5 and 4.1 pg/10^5 and 2.4 pg/10^5
Concentration, Bead name: IL-4 [11]: 14.8 pg/mL
MFI, Bead name: IL-4 [11]: −0.3
conc/live cell, Bead name: IL-4 [11]: 2.5 pg/10^5
Concentration, Bead name: IL-4 [12]: 18.4 pg/ml (2×) and 7.7 pg/ml
MFI, Bead name: IL-4 [12]: 0.0 (2×) and −1.0
conc/live cell, Bead name: IL-4 [12]: 2.9 pg/10^5 and 3.0 pg/10^5 and 1.5 pg/10^5
Concentration, Bead name: IL-4 [13]: 27.9 pg/mL
MFI, Bead name: IL-4 [13]: 1.3
conc/live cell, Bead name: IL-4 [13]: 5.6 pg/10^5
Concentration, Bead name: IL-4 [14]: 22.6 pg/mL and 33.2 pg/mL
MFI, Bead name: IL-4 [14]: 0.5 and 2.0
conc/live cell, Bead name: IL-4 [14]: 4.3 pg/10^5 and 6.9 pg/10^5
Concentration, Bead name: IL-4 [15]: 29.8 pg/mL
MFI, Bead name: IL-4 [15]: 1.5
conc/live cell, Bead name: IL-4 [15]: 5.9 pg/10^5
Concentration, Bead name: IL-4 [16]: 26.4 pg/mL and 33.2 pg/mL
MFI, Bead name: IL-4 [16]: 1.0 and 2.0
conc/live cell, Bead name: IL-4 [16]: 6.0 pg/10^5 and 5.7 pg/10^5
Concentration, Bead name: IL-4 [17]: 18.4 pg/mL
MFI, Bead name: IL-4 [17]: 0.0
conc/live cell, Bead name: IL-4 [17]: 3.3 pg/10^5
Concentration, Bead name: IL-4 [18]: 18.4 pg/mL
MFI, Bead name: IL-4 [18]: 0.0
conc/live cell, Bead name: IL-4 [18]: 3.3 pg/10^5
Concentration, Bead name: IL-4 [19]: 47.4 pg/mL
MFI, Bead name: IL-4 [19]: 4.5
conc/live cell, Bead name: IL-4 [19]: 7.6 pg/10^5
Concentration, Bead name: IL-4 [20]: 55.5 pg/mL and 39.4 pg/mL
MFI, Bead name: IL-4 [20]: 6.0 and 3.0
conc/live cell, Bead name: IL-4 [20]: 8.7 pg/10^5 and 6.5 pg/10^5
Concentration, Bead name: IL-4 [21]: 13.0 pg/mL
MFI, Bead name: IL-4 [21]: −0.5
conc/live cell, Bead name: IL-4 [21]: 1.9 pg/10^5
Concentration, Bead name: IL-4 [22]: 7.7 pg/mL and 18.4 pg/mL
MFI, Bead name: IL-4 [22]: −1.0 and 0.0
conc/live cell, Bead name: IL-4 [22]: 1.2 pg/10^5 and 2.6 pg/10^5
